# According to patent US8669293B2, “Method and compositions for preventing hormone induced adverse effects” (Lycored Ltd., priority 2000, dated 2014):
# Entries after “also recorded” stand apart in the source; their conditions may differ.
# Legend:
# [1] = tested on: ECC-1 endometrial cancer cells; test: ECC-1 cell proliferation assay ([3H]thymidine incorporation into DNA); assay type: cell-based, human; details: for inhibition of estradiol-induced cell proliferation / inhibition of genistein-induced cell proliferation: FIG. 4
# Experimental: The human endometrial cancer (estrogen dependent) cell line ECC-1 was developed by Dr. […] University, PA, U.S.A, and generously provided to us by Dr. R. Oregan, Norwestern University, Chicago, Ill., U.S.A. Human mammary cancer cell lines MCF-7 (estrogen dependent) and MDA-231 (hormone independent) were obtained from the American Type Culture Collection (Rockville, Md., U.S.A.). Cells were cultured in DMEM containing penicillin (100 U/ml), streptomycin (0.1 mg/ml)) nystatin (12.5 μg/ml), insulin (0.6 μg/ml), and 10% FCS. Cells were stripped of endogenous steroids according to the procedure of Vignon et al. (1987, Biochem. Biophys. Res. Comm., 146:1502-8) by sucessive passages in medium without phenol red containing 10% and then 3% of charcoal-stripped FCS. Cells were seeded into 96 multiwell plates (5,000 cells per well) in DMEM containing 3% of charcoal-stripped FCS. After one day the medium was changed to one containing the solubilized carotenoid or THF alone. The medium was changed daily to ensure a continuous supply of carotenoid. After incubation, the number of cells and the rate of cell proliferation were estimated by the incorporation of [^3H]thymidine incorporation into cellular DNA, as described in U.S. Pat. No. 5,827,900. Cell growth was also measured by direct cell counting with a Coulter counter after trypsinization and dilution in Isotone-II (Coulter Electronics, Luton, England). A good correlation was found between the two methods. ECC-1 cells were incubated with increasing concentrations of the isoflavones genistein and daidzein, the two primary isoflavones in soy products, and with soy extract. Cell proliferation after three days was measured by [^3H]thymidine incorporation into DNA (FIG. 1, panel A). […] ECC-1 cells were also incubated with a single high concentration (40 μM) of each of genistein, daidzein and soy extract and cell proliferation was assayed daily over the course of three days.
# [2] = tested on: estrogen receptor-positive human breast cancer cell lines; details: approximately 0.1 to 10 μM; not in estrogen receptor negative lines; cited from earlier work
# [3] = tested on: MCF-7 mammary cancer cells (estrogen dependent); test: MCF-7 cell proliferation assay ([3H]thymidine incorporation); assay type: cell-based, human; details: for inhibition of phytoestrogen-induced cell proliferation: genistein 4 μM
# Experimental: (§1) The human endometrial cancer (estrogen dependent) cell line ECC-1 was developed by Dr. P. G. Satyaswaroop, Pennslyvania State University, PA, U.S.A, and generously provided to us by Dr. R. Oregan, Norwestern University, Chicago, Ill., U.S.A. Human mammary cancer cell lines MCF-7 (estrogen dependent) and MDA-231 (hormone independent) were obtained from the American Type Culture Collection (Rockville, Md., U.S.A.).
# (§2) Cells were cultured in DMEM containing penicillin (100 U/ml), streptomycin (0.1 mg/ml)) nystatin (12.5 μg/ml), insulin (0.6 μg/ml), and 10% FCS. Cells were stripped of endogenous steroids according to the procedure of Vignon et al. (1987, Biochem. Biophys. Res. Comm., 146:1502-8) by sucessive passages in medium without phenol red containing 10% and then 3% of charcoal-stripped FCS. Cells were seeded into 96 multiwell plates (5,000 cells per well) in DMEM containing 3% of charcoal-stripped FCS. After one day the medium was changed to one containing the solubilized carotenoid or THF alone. The medium was changed daily to ensure a continuous supply of carotenoid.
# (§3) After incubation, the number of cells and the rate of cell proliferation were estimated by the incorporation of [^3H]thymidine incorporation into cellular DNA, as described in U.S. Pat. No. 5,827,900. Cell growth was also measured by direct cell counting with a Coulter counter after trypsinization and dilution in Isotone-II (Coulter Electronics, Luton, England).
# The comparative effects of estradiol and genistein supplementation on the proliferation of the hormone-dependent cell lines MCF-7 mammary cancer and ECC-1 endometrial cancer were examined (FIG. 2).
# MCF-7 mammary cancer cells were stimulated by genistein (4 μM) and test cultures were additionally supplemented with lycopene or phytoene or a combination of both, at either physiological concentrations (FIG. 6 panel A) or at about one order of magnitude greater than the physiological concentrations (FIG. 6 panel B).
# [4] = tested on: MDA-231 mammary cancer cells (hormone independent); test: MDA-231 cell proliferation assay ([3H]thymidine incorporation); assay type: cell-based, human; details: IGF-1 30 nM
# Experimental: as §1, §2
# as §3, with “England). A good correlation was found between the two methods.” for “England).”
# [5] = 40 μM, after one day of incubation, FIG. 1 panel B
# [6] = 0.4 and 4 μM, three days, FIG. 1 panel A
# [7] = higher, non-physiological concentrations (≧10 μM), three days, FIG. 1 panel A
# [8] = carotenoids at high, non-physiological concentrations (about one order of magnitude above physiological), FIG. 6 panel B
# [9] = carotenoids at physiological concentrations, FIG. 6 panel A
# [10] = lycopene 3 to 5 μM, three days, FIG. 2
molecule,measurement,setting,value
CC1=C(/C=C/C(C)=C/C=C/C(C)=C/C=C/C=C(C)/C=C/C=C(C)/C=C/C2=C(C)C(=O)[C@@H](O)CC2(C)C)C(C)(C)C[C@H](O)C1=O [astaxanthin],inhibition of estradiol-induced cell proliferation,[1]; estradiol 10 nM,effectively inhibited
same,inhibition of genistein-induced cell proliferation,[1]; genistein 1 μM,effective inhibitors; also recorded: effectively inhibited
CC1=C(/C=C/C(C)=C/C=C/C(C)=C/C=C/C=C(C)/C=C/C=C(C)/C=C/C2=C(C)CCCC2(C)C)C(C)(C)CCC1 [beta-carotene],inhibition of estradiol-induced cell proliferation,[1]; estradiol 10 nM,effectively inhibited
same,inhibition of genistein-induced cell proliferation,[1]; genistein 1 μM,effective inhibitors; also recorded: effectively inhibited
COc1ccc(-c2coc3cc(O)cc(O)c3c2=O)cc1 [biochanin A],effect on cell proliferation,[2],induce cell proliferation
O=c1oc2cc(O)ccc2c2oc3cc(O)ccc3c12 [counestrol],effect on cell proliferation,[2],induce cell proliferation
"O=c1c(-c2ccc(O)cc2)coc2cc(O)ccc12 [daidzein, reference compound]",effect on cell proliferation,[1]; [5],significantly increases cell proliferation; also recorded: stimulated cell proliferation
same,effect on cell proliferation,[1]; [6],significant increase in cell proliferation rate; also recorded: stimulated cell proliferation
same,effect on cell proliferation,[1]; [7],only stimulatory
"O=c1c(-c2ccc(O)cc2)coc2cc(O)cc(O)c12 [genistein, reference compound]",stimulatory effect of genistein in the presence of IGF-1,"[3]; genistein about 0.4 to 4 μM plus IGF-1 30 nM, compared with genistein alone, FIG. 3 panel A",significantly increases the cell proliferation rate; also recorded: further augmented
same,effect of hormone alone on proliferation,"[3]; genistein increasing concentrations, estradiol 1 and 10 nM, FIG. 2",biphasic effects on proliferation
same,effect on cell proliferation,[2],induce cell proliferation
same,effect on cell proliferation,[1]; [5],significantly increases cell proliferation; also recorded: stimulated cell proliferation
same,effect on cell proliferation,"[1]; 40 μM, second day in culture, FIG. 1 panel B",inhibitory effects
same,effect on cell proliferation,[1]; [6],significant increase in cell proliferation rate
same,effect on cell proliferation,"[1]; 0.4 and 4 μM, three days, FIG. 1 panel A, listed as Genistein",stimulated cell proliferation
same,effect of hormone alone on proliferation,"[1]; genistein increasing concentrations, estradiol 1 and 10 nM, FIG. 1/2",biphasic effects on proliferation
same,effect on cell proliferation,[1]; [7],inhibited cell proliferation
O=c1c(O)c(-c2ccc(O)cc2)oc2cc(O)cc(O)c12 [kaempferl],effect on cell proliferation,[2],induce cell proliferation
O=c1cc(-c2ccc(O)c(O)c2)oc2cc(O)cc(O)c12 [luiolin],effect on cell proliferation,[2],induce cell proliferation
CC(C)=CCC/C(C)=C/C=C/C(C)=C/C=C/C(C)=C/C=C/C=C(C)/C=C/C=C(C)/C=C/C=C(\C)CCC=C(C)C [lycopene],inhibition of phytoestrogen-induced cell proliferation,[3]; [8],effective in significantly inhibiting
same,inhibition of phytoestrogen-induced cell proliferation,[3]; [9],only marginally effective
same,effect on IGF stimulation of proliferation,"[3]; lycopene 3 to 5 μM, IGF-1 30 nM, FIG. 3",inhibits IGF stimulation
same,effect on cell proliferation stimulated by combined IGF-1 and genistein,"[3]; lycopene 3 to 5 μM, genistein 0.4 to 4 μM, IGF-1 30 nM, FIG. 3 panel A",inhibits the cell proliferation
same,effect on basal growth,[3]; [10],significantly inhibited
same,effect on estrogen-induced (genistein or estradiol) growth,[3]; [10],substantially inhibited; also recorded: significantly inhibited
same,inhibition of estradiol-induced cell proliferation,[1]; estradiol 10 nM,effectively inhibited
same,"inhibition of estradiol-induced cell proliferation, dose dependence","[1]; estradiol 10 nM, various lycopene concentrations (lowest 0.9 μM), FIG. 5",all lycopene concentrations tested were effective in inhibiting
same,inhibition of genistein-induced cell proliferation,[1]; genistein 1 μM,effective inhibitors; also recorded: effectively inhibited
same,"inhibition of genistein-induced cell proliferation, dose dependence","[1]; genistein 1 μM, various lycopene concentrations (lowest 0.9 μM), FIG. 5",all lycopene concentrations tested were effective in inhibiting
same,effect on basal growth,[1]; [10],significantly inhibited
same,effect on estrogen-induced (genistein or estradiol) growth,[1]; [10],substantially inhibited; also recorded: significantly inhibited
same,cell proliferation relative to controls,"[4]; lycopene 3 to 5 μM, FIG. 3",reduced to levels less than that of controls
same,effect on IGF stimulation of proliferation,"[4]; lycopene 3 to 5 μM, FIG. 3",inhibits IGF stimulation
CC(C)=CCC/C(C)=C/CC/C(C)=C/CC/C(C)=C/C=C/C=C(\C)CC/C=C(\C)CC/C=C(\C)CCC=C(C)C [phytoene],inhibition of phytoestrogen-induced cell proliferation,[3]; [8],effective in significantly inhibiting
same,inhibition of phytoestrogen-induced cell proliferation,[3]; [9],not effective
same,inhibition of genistein-induced cell proliferation,[1]; genistein 1 μM,effective inhibitors
IGF-1: Human recombinant IGF-1 purchased from GroPep,effect on cell growth,"[3]; IGF-1 30 nM, FIG. 3 panel A",significantly stimulates cell growth
same,effect on cell growth,[4]; FIG. 3 panel B,significantly stimulates cell growth
